Test results reported in patent publication EP1075186B1, “METHOD OF HSV PROPHYLAXIS” (The Children's Hospital Research Foundation, priority 1998, dated 1999).

How the values were obtained:
HSV-2 strain 186 [1] = test: Mouse genital HSV-2 model, intravaginal prophylaxis; format: in vivo, Swiss Webster mice
Method: Sixty female Swiss Webster mice pretreated with medroxyprogesterone acetate were randomized to four groups of 15 to receive either Saline (control), 2 % Acyclovir, 2 % Compound 96, or 0.5% Compound 96. Animals were anesthetized by intraperitoneal injection of sodium pentabarbital and then administered 15 µl of control or test compound intravaginally in one treatment. They were then immediately challenged by intravaginal instillation with 15 µl of a suspension containing 10^4 plaque forming units HSV-2 strain 186. Vaginal swabs were collected on days 1 and 2 post-inoculation (PI) to assess the effect of treatment on vaginal replication in the genital tract. In addition, all animals were examined daily until day 21 PI for mortality and signs of infection (erythema, hair loss and hind limb paralysis).

[2] = test system: human foreskin fibroblast (HFF) cell monolayers; test: Toxicity effects controls (sham-inoculated compound treated HFF monolayers); format: cell-based; conditions: for TOXICITY EFFECTS CONTROL: Experiment 4, Table 10
Excerpt: Sham-incolulated, non-treated HFF cell monolayers were included along with the drug-treated monolayers as "cell monolayer controls". • 1. HSV-1 inoculated, non-compound treated HFF monolayers were included as "positive controls"; and • 2.
In the tables, the symbols have the meaning indicated: + = toxic; - = no toxicity; +/- = mild toxicity; ND = not done; T = toxicity effects interfered with CPE rating; CPE = cytopathic effect.

HSV-2 strain 186 [3] = test: Mouse genital HSV-2 model, intravaginal prophylaxis; format: in vivo, Swiss Webster mice; conditions: repeat study
VZV = test: In vitro assay with VZV on HFF cell monolayers; format: cell-based; conditions: Example 2, Table 17, 0.1 mg/ml, footnote: this toxicity observation is questionable
Method: VZV was grown to a CPE level […] of 3-4 + on HFF cell monolayers. The VZV was scraped from the flask, centrifuged and the cell pellet was resuspended in 10 ml of complete medium. 100 to 200 µl of the VZV cell associated inoculum was inoculated onto confluent HFF cell monolayers by absorption for 60 minutes at 37°C. After absorption of the virus, the inoculum was aspirated from the cell monolayers.
The VZV-infected monolayers were rehydrated with medium containing the appropriate concentrations of compounds to be tested. All monolayers were incubated at 37°C. Development of VZV cytopathology was monitored daily for 7 days by inverted light microscopy. Titers were calculated by multiple regression analysis.

[4] = 0.001 mg/ml, 24 hrs post incubation
[5] = 0.001 mg/ml, 48 hrs post incubation
[6] = 0.01 mg/ml, 24 hrs post incubation
[7] = 0.01 mg/ml, 48 hrs post incubation
[8] = 0.1 mg/ml, 24 hrs post incubation
[9] = 0.1 mg/ml, 48 hrs post incubation
[10] = 0.5 mg/ml, 24 hrs post incubation
[11] = 0.5 mg/ml, 48 hrs post incubation
[12] = 1 mg/ml, 24 hrs post incubation
[13] = 1 mg/ml, 48 hrs post incubation
[14] = 5 mg/ml, 24 hrs post incubation
[15] = 5 mg/ml, 48 hrs post incubation

Structure (SMILES): CC1=CC(C)=[N+]2CC[N+]3=C(C)C=C(C)[O][Co-3]23([n+]2cc[nH]c2C)([n+]2cc[nH]c2C)[O]1 [Compound 96]
- signs of genital disease (HSV-2 strain 186 [1]; 2 % and 0.5% groups, 15 mice each): none of these animals developed any signs of genital disease
- mortality (HSV-2 strain 186 [1]; 2 % and 0.5% groups, 15 mice each, to day 21 PI): all lived
- vaginal herpes infection (HSV-2 strain 186 [1]; topical (intravaginal) application before HSV-2 challenge): completely blocked
- virus in the genital tract (HSV-2 strain 186 [1]; vaginal swabs on day 1 or 2 PI): no detectable virus
- TOXICITY EFFECTS CONTROLS ([2]; Experiment 1, Table 1, 0.001 mg/ml, 24 h): -
- TOXICITY EFFECTS CONTROLS ([2]; Experiment 1, Table 1, 0.001 mg/ml, 48 h): -
- TOXICITY EFFECTS CONTROLS ([2]; Experiment 1, Table 1, 0.01 mg/ml, 24 h): -
- TOXICITY EFFECTS CONTROLS ([2]; Experiment 1, Table 1, 0.01 mg/ml, 48 h): -
- TOXICITY EFFECTS CONTROLS ([2]; Experiment 1, Table 1, 0.1 mg/ml, 24 h): -
- TOXICITY EFFECTS CONTROLS ([2]; Experiment 1, Table 1, 0.1 mg/ml, 48 h): -
- TOXICITY EFFECTS CONTROLS ([2]; Experiment 1, Table 1, 1 mg/ml, 24 h): -
- TOXICITY EFFECTS CONTROLS ([2]; Experiment 1, Table 1, 1 mg/ml, 48 h): -
- toxicity ([2]; Experiment 1, 1 mg/ml): lack of toxicity
- TOXICITY EFFECTS CONTROLS ([2]; Experiment 2, Table 4, 0.001 mg/ml, 24 h PI): -
- TOXICITY EFFECTS CONTROLS ([2]; Experiment 2, Table 4, 0.001 mg/ml, 48 h PI): -
- TOXICITY EFFECTS CONTROLS ([2]; Experiment 2, Table 4, 0.01 mg/ml, 24 h PI): -
- TOXICITY EFFECTS CONTROLS ([2]; Experiment 2, Table 4, 0.01 mg/ml, 48 h PI): -
- TOXICITY EFFECTS CONTROLS ([2]; Experiment 2, Table 4, 0.1 mg/ml, 24 h PI): -
- TOXICITY EFFECTS CONTROLS ([2]; Experiment 2, Table 4, 0.1 mg/ml, 48 h PI): -
- TOXICITY EFFECTS CONTROLS ([2]; Experiment 2, Table 4, 1 mg/ml, 24 h PI): -
- TOXICITY EFFECTS CONTROLS ([2]; Experiment 2, Table 4, 1 mg/ml, 48 h PI): -
- TOXICITY EFFECTS CONTROLS ([2]; Experiment 3, Table 7, 0.001 mg/ml, 24 hrs post incubation): -
- TOXICITY EFFECTS CONTROLS ([2]; Experiment 3, Table 7, 0.001 mg/ml, 48 hrs post incubation): -
- TOXICITY EFFECTS CONTROLS ([2]; Experiment 3, Table 7, 0.01 mg/ml, 24 hrs post incubation): -
- TOXICITY EFFECTS CONTROLS ([2]; Experiment 3, Table 7, 0.01 mg/ml, 48 hrs post incubation): -
- TOXICITY EFFECTS CONTROLS ([2]; Experiment 3, Table 7, 0.1 mg/ml, 24 hrs post incubation): +/-
- TOXICITY EFFECTS CONTROLS ([2]; Experiment 3, Table 7, 0.1 mg/ml, 48 hrs post incubation): +/-
- TOXICITY EFFECTS CONTROLS ([2]; Experiment 3, Table 7, 0.5 mg/ml, 24 hrs post incubation): -
- TOXICITY EFFECTS CONTROLS ([2]; Experiment 3, Table 7, 0.5 mg/ml, 48 hrs post incubation): -
- TOXICITY EFFECTS CONTROLS ([2]; Experiment 3, Table 7, 1 mg/ml, 24 hrs post incubation): -
- TOXICITY EFFECTS CONTROLS ([2]; Experiment 3, Table 7, 1 mg/ml, 48 hrs post incubation): +/-
- TOXICITY EFFECTS CONTROLS ([2]; Experiment 3, Table 7, 5 mg/ml, 24 hrs post incubation): +/-
- TOXICITY EFFECTS CONTROLS ([2]; Experiment 3, Table 7, 5 mg/ml, 48 hrs post incubation): +/-
- TOXICITY EFFECTS CONTROL [2, 4]: -
- TOXICITY EFFECTS CONTROL [2, 5]: -
- TOXICITY EFFECTS CONTROL [2, 6]: -
- TOXICITY EFFECTS CONTROL [2, 7]: -
- TOXICITY EFFECTS CONTROL [2, 8]: +/-
- TOXICITY EFFECTS CONTROL [2, 9]: +/-
- TOXICITY EFFECTS CONTROL [2, 10]: -
- TOXICITY EFFECTS CONTROL [2, 11]: -
- TOXICITY EFFECTS CONTROL [2, 12]: +/-
- TOXICITY EFFECTS CONTROL [2, 13]: +/-
- TOXICITY EFFECTS CONTROL [2, 14]: +/-
- TOXICITY EFFECTS CONTROL [2, 15]: +
- TOXICITY EFFECTS CONTROLS ([2]; Experiment 5, Table 12, 48 Hours Post Incubation, 0.001 mg/ml): -
- TOXICITY EFFECTS CONTROLS ([2]; Experiment 5, Table 12, 48 Hours Post Incubation, 0.01 mg/ml): -
- TOXICITY EFFECTS CONTROLS ([2]; Experiment 5, Table 12, 48 Hours Post Incubation, 1 mg/ml): -
- TOXICITY EFFECTS CONTROLS ([2]; Experiment 5, Table 12, 48 Hours Post Incubation, 2 mg/ml): +/-
- TOXICITY EFFECTS CONTROLS ([2]; Experiment 5, Table 12, 48 Hours Post Incubation, 5 mg/ml): +/-
- toxicity ([2]; Experiment 5, cell rounding, detaching from the monolayer, increased granularity, loss of normal morphology): more pronounced in the 0.5 and the 0.1 mg/ml concentrations
- protection from visible infection and death (HSV-2 strain 186 [3]; concentrations of 0.1 % or more): completely protected
- animals protected from death (HSV-2 strain 186 [3]; lowest concentration of 0.01 %): 6 of 10
- VIRUCIDAL EFFICACY 7 Days Post Inoculation Efficacy (VZV): T?

Structure (SMILES): CC1=CC(C)=[N+]2CC[N+]3=C(C)C=C(C)[O][Co-3]23([n+]2c[nH]c(C)c2)([n+]2c[nH]c(C)c2)[O]1 [Compound 97]
- TOXICITY EFFECTS CONTROL [2, 4]: -
- TOXICITY EFFECTS CONTROL [2, 5]: -
- TOXICITY EFFECTS CONTROL [2, 6]: -
- TOXICITY EFFECTS CONTROL [2, 7]: -
- TOXICITY EFFECTS CONTROL [2, 8]: +/-
- TOXICITY EFFECTS CONTROL [2, 9]: +/-
- TOXICITY EFFECTS CONTROL [2, 10]: -
- TOXICITY EFFECTS CONTROL [2, 11]: -
- TOXICITY EFFECTS CONTROL [2, 12]: +/-
- TOXICITY EFFECTS CONTROL [2, 13]: +/-
- TOXICITY EFFECTS CONTROL [2, 14]: +/-
- TOXICITY EFFECTS CONTROL [2, 15]: +

Structure (SMILES): CC1=[N+]2CC[N+]3=C(C)C=C(c4ccccc4)[O][Co-3]23([n+]2cc[nH]c2C)([n+]2cc[nH]c2C)[O]C(c2ccccc2)=C1 [Compound 102]
- TOXICITY EFFECTS CONTROL [2, 4]: -
- TOXICITY EFFECTS CONTROL [2, 5]: -
- TOXICITY EFFECTS CONTROL [2, 6]: -
- TOXICITY EFFECTS CONTROL [2, 7]: -
- TOXICITY EFFECTS CONTROL [2, 8]: -
- TOXICITY EFFECTS CONTROL [2, 9]: -
- TOXICITY EFFECTS CONTROL [2, 10]: -
- TOXICITY EFFECTS CONTROL [2, 11]: -
- TOXICITY EFFECTS CONTROL [2, 12]: +/-
- TOXICITY EFFECTS CONTROL [2, 13]: +/-
- TOXICITY EFFECTS CONTROL [2, 14]: +/-
- TOXICITY EFFECTS CONTROL [2, 15]: +
